Measurements reported in US20200345725A1, “Methods and Compositions for Treating Cancer” (Omeros Corporation, priority 2019, published 2020).

Biological target: GPR174-v38 (Homo sapiens, UniProt Q9BXC1)
Experiment: Inhibition of PS-induced GPR174 Gs signaling (GloSensor), HEK293 stably transfected with GPR174-v38
Type: cell-based
Settings: PS liposomes 1 μM; for IC50: GPR174-v38 (compound 59: data not shown), read-out: apparent IC50, inhibition of PS-induced GPR174 Gs signaling

| Compound | PS-mediated GPR174 Gs signaling (FIGS. 47B-47F) | IC50 |
| --- | --- | --- |
| CCOc1ccc(C2C3=C(CCCC3=O)NC3=C2C(=O)c2ccccc23)cc1OCC (centres unmarked) [compound 30] | inhibited | ~1300 nM |
| CCOc1ccc(C2C3=C(CCCC3=O)NC3=C2C(=O)c2ccccc23)cc1 (centres unmarked) [compound 23] | inhibited | ~150 nM |
| S=C(NCc1ccco1)Nc1ccc(I)cc1 [compound 59] | – | ~10000 nM |
| O=[N+]([O-])c1cc(F)c(N2CCCCC2)cc1N1CCN(S(=O)(=O)c2ccccc2)CC1 [compound 11] | inhibited | ~100 nM |
| O=C(c1ccccc1)N1CCN(c2cc(N3CCCCC3)c(F)cc2[N+](=O)[O-])CC1 [compound 6] | inhibited | ~100 nM |
| Cc1ccccc1Nc1nnc(-c2ccc(C)c(S(N)(=O)=O)c2)c2ccccc12 [compound 20] | inhibited | ~3000 nM |
